Measurements as given in patent US10799480B2, “Calixpyrrole-based antitumor compounds” (Giam Pharma International sarl, priority 2016, dated 2020).
Entries after “also recorded” stand apart in the source; their conditions may differ.

Experiments:
[1] = system: ovary carcinoma SKOV-3; assay: MTT test on ovary carcinoma SKOV-3 cell line; type: cell-based; conditions: for EC50: Homo sapiens, SK-OV-3, SKOV-3; for activity: SKOV-3, fragments
Source text: (§1) Cellular vitality tests have been performed by using the derivatives of Formulas VII, I and III on due ovary carcinoma lines (SKOV-3 and A2774), two mammary carcinoma lines (MCF-7 and MDAMB-231) and two pulmonary carcinoma lines (H727 and A549). The compounds of Formulas I and III have further been tested in liposomal nanoparticles (NP) in comparison with the pulmonary carcinoma lines H727. The pulmonary carcinoma lines have been used also as target for determining the genotoxicity of the compounds of Formulas I and III, for determining the type of cellular death, through flow cytometry analyses, and for a preliminary analysis in vivo with toxicity determination and pharmacy-kinetics estimation (compound from Formula I).
(§2) The macrocycles of Formulas VII, I and III have been used in MTT tests on cellular lines derive from ovary carcinoma. […] The selectivity shown by the derivative of Formula I compared with a specific cellular line surely needs to be further analyzed as regards its operating mechanism.
(§3) A series of MTT tests have been performed by using the derivatives of Formulas VI, VIII, II and IV (such compounds can be considered as possible fragments of the macrocycles of Formulas V, VII, I and III). […] The results of these MTT tests show how the cytotoxic activity of the compounds of the invention has to be ascribed to the complete structure of the macrocycle having the acetyl function and not to any isolated component thereof.

[2] = system: ovary carcinoma A2774; assay: MTT test on ovary carcinoma A2774 cell line; type: cell-based
Source text: as §1, §2

[3] = system: mammary carcinoma MCF-7; assay: MTT test on mammary carcinoma MCF-7 cell line; type: cell-based; conditions: Homo sapiens, MCF7
Source text: as §1
(§4) In particular, for both tumor cellular lines, the derivatives of Formulas I and III have EC50 of about 20 μM, while the derivative of Formula VII has a EC50 included between 20 and 30 μM, as shown in the graphs in FIG. 3 and FIG. 4.

[4] = system: mammary carcinoma MDAMB-231; assay: MTT test on mammary carcinoma MDAMB-231 cell line; type: cell-based; conditions: Homo sapiens, MDA-MB-231
Source text: as §1, §4

[5] = system: pulmonary carcinoma H727; assay: MTT test on pulmonary carcinoma H727 cell line; type: cell-based; conditions: H727, different concentrations, as such or in lipid nanoparticles (NP)
Source text: as §1
(§5) The derivatives of Formulas I and III have been used for a series of MTT tests at different concentrations, as such or from a formulation of lipid nanoparticles (NP), using cellular lines deriving from pulmonary carcinoma H727.

[6] = system: pulmonary carcinoma A549; assay: MTT test on pulmonary carcinoma A549 cell line; type: cell-based; conditions: for efficacy compared with Endoxan (cyclophosphamide): A549, various concentrations; for efficacy: A549
Source text: as §1, §5, §3

[7] = system: pulmonary carcinoma A549; assay: Flow cytometry analysis of type of cellular death; type: cell-based
Source text: as §1
The cellular lines A549 treated with the compound of Formula I show 38.80% of apoptosis (9.05% early apoptosis and 29.75% late apoptosis) compared with a 9.30% of necrosis. The same cells treated with the compound of Formula III show 23.45% of total apoptosis (10.25% early apoptosis and 13.20% late apoptosis) against 4.75% of necrosis.

[8] = system: pulmonary carcinoma A549; assay: COMET test (DNA fragmentation); type: cell-based; conditions: concentrations from 5 to 50 μM, with respect to standard K
Source text: These latter data are mainly affected by the fact that this technique is not able to detect dead cells, and, in case of compounds of Formulas I and III, such percentage, as previously seen, is relevant.

[9] = system: DNA of pulmonary carcinoma A549 cells; assay: Receptor-DNA adducts through 32P marking; type: cell-based; conditions: A549, butanol enrichment
[10] = mouse, in vivo
Source text: (§6) A preliminary analysis for the toxicity in vivo has been performed by using the compound of Formula I on NJ mice. Due to the particularly hydrophobic nature of such derivative, after various attempts to determine the best solvent mixture, which is non-toxic for the animal, but which contains an adequate concentration of receptor, it has been decided to administer the compound using a mixture containing 10% of DMSO in olive oil. […] After 5 days, the mouse has been sacrificed and, through a HPLC/Mass analysis, the distribution of the compound inside the different compartments has been determined. The different tissues/organs (back sub-skin, spleen, omentum, heart, liver, brain, lung and kidney) have been removed, homogenized and analyzed. A high concentration of the compound of Formula I (determined through the computation of the peak area at m/z 546.31), corresponding to the analyzed compound [M-H]^−), has been observed in the injection site (Area 532.875) and in the spleen (Area 196.233), but the biggest amount has been discovered in the omentum (Area 1.237.999). Lower concentrations have been discovered in the kidney (Area 120.117), in the lung (Area 32.514) and in the heart (Area 29.443). A minimum amount of the compound has been detected in the liver (Area 11.293).

[11] = system: NJ mice; conditions: in vivo
Source text: as §6

[12] = molecular target: extrogen receptor GPER (Homo sapiens, UniProt Q99527); conditions: literature; cited from earlier work
Sequence of extrogen receptor GPER (Q99527 whole entry): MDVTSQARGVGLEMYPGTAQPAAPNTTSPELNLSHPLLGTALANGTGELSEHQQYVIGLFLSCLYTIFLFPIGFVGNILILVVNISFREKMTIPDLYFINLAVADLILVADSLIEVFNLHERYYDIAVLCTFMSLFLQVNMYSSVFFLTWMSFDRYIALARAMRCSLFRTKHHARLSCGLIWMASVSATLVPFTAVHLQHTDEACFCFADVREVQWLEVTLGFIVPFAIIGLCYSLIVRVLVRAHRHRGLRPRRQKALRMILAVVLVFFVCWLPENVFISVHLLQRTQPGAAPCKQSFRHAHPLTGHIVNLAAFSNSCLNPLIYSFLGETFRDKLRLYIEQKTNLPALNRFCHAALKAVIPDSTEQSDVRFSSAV

[13] = literature; cited from earlier work

CC(=O)Nc1cccc(C2(C)c3ccc([nH]3)C(C)(C)c3ccc([nH]3)C(C)(C)c3ccc([nH]3)C(C)(C)c3ccc2[nH]3)c1 [Formula III] showed an EC50 [1] of roughly 15 µM, an EC50 [2] of roughly 15 µM and an EC50 [3] of roughly 20 µM. For the same compound, the EC50 [4] was roughly 20 µM, the “efficacy (cellular vitality)” value [5] was “maximum efficacy already at the lowest doses being used (5 μM)” and the “efficacy compared with Endoxan (cyclophosphamide)” value [6] was “even more efficient than the known chemotherapeutic drug Endoxan”. For the same compound, the early apoptosis [7] was 10.25%, the late apoptosis [7] was 13.20% and the main death mechanism [7] was “apoptosis is the main death mechanism”. The necrosis [7] was 4.75%, the total apoptosis [7] was 23.45% and the “fragmentation of DNA” value [8] was “have not given any fragmentation of DNA”. The “adducts with DNA / genotoxicity” value [9] was “adducts with DNA have been identified; also recorded: higher genotoxicity of the compound of Formula III with respect to the derivative of Formula I”.

With CC(=O)Nc1ccc(C(C)(c2ccc[nH]2)c2ccc[nH]2)cc1 [Formula II] the efficacy [6] was “have not shown any activity”.

In the case of CC(=O)Nc1cccc(C(C)(c2ccc[nH]2)c2ccc[nH]2)c1 [Formula IV], the efficacy [6] is reported as “have not shown any activity”.

With CC(=O)Nc1ccc(C2(C)c3ccc([nH]3)C(C)(C)c3ccc([nH]3)C(C)(C)c3ccc([nH]3)C(C)(C)c3ccc2[nH]3)cc1 [Formula I] the EC50 [1] was 1 to 5 µM, the EC50 [2] was roughly 15 µM and the EC50 [3] was roughly 20 µM. The EC50 [4] was roughly 20 µM, the “efficacy (cellular vitality)” value [5] was “maximum efficacy already at the lowest doses being used (5 μM)” and the “efficacy compared with Endoxan (cyclophosphamide)” value [6] was “even more efficient than the known chemotherapeutic drug Endoxan”. The early apoptosis [7] was 9.05%, the late apoptosis [7] was 29.75% and the main death mechanism [7] was “apoptosis is the main death mechanism”. The necrosis [7] was 9.30%, the total apoptosis [7] was 38.80% and the “fragmentation of DNA” value [8] was “have not given any fragmentation of DNA”. For the same compound, the “adducts with DNA / genotoxicity” value [9] was “adducts with DNA have been identified”, the “peak area in the brain” value ([10]; NJ, 5 days) was 7.735 and the “peak area in the heart” value ([10]; NJ, 5 days) was 29.443. The “peak area in the injection site” value ([10]; NJ, 5 days) was 532.875, the “peak area in the kidney” value ([10]; NJ, 5 days) was 120.117 and the “peak area in the liver” value ([10]; NJ, 5 days) was 11.293. The “peak area in the lung” value ([10]; NJ, 5 days) was 32.514, the “peak area in the spleen” value ([10]; NJ, 5 days) was 196.233 and the “passing the hematic-encephalic barrier” value [10] was “actually capable of passing the hematic-encephalic barrier”. For the same compound, the “effects on the mouse” value ([11]; sc, 5 mg/kg) was “without discovering particular effects on the mouse” and the “effect on the animal” value ([11]; mouse, ip) was “has not show any apparent effect on the animal”.

In the case of CC(c1cccc(N)c1)(c1ccc[nH]1)c1ccc[nH]1 [Formula VIII], the activity [1] is reported as “inefficient”.

In the case of CC1(C)c2ccc([nH]2)C(C)(C)c2ccc([nH]2)C(C)(c2cccc(N)c2)c2ccc([nH]2)C(C)(C)c2ccc1[nH]2 [Formula VII], the EC50 [1] is reported as roughly 15 µM, the activity [2] is reported as “has not shown any activity” and the EC50 [3] is reported as 20 to 30 µM. For the same compound, the EC50 [4] was 20 to 30 µM, the efficacy [6] was “seem not show any efficacy” and the “fragmentation of DNA” value [8] was “a fragmentation is observed”.

In the case of CC(c1ccc(N)cc1)(c1ccc[nH]1)c1ccc[nH]1 [Formula VI], the activity [1] is reported as “inefficient”.

In the case of CC1(C)c2ccc([nH]2)C(C)(C)c2ccc([nH]2)C(C)(c2ccc(N)cc2)c2ccc([nH]2)C(C)(C)c2ccc1[nH]2 [Formula V], the efficacy [6] is reported as “seem not show any efficacy” and the “fragmentation of DNA” value [8] is reported as “a fragmentation is observed”.

For CC1(C)c2ccc([nH]2)C(C)(C)c2ccc([nH]2)C(C)(C)c2ccc([nH]2)C(C)(C)c2ccc1[nH]2 [meso-octametil-calix[4]pyrrole], the GPER inhibition [12] is given as “selective inhibitor of the extrogen receptor GPER” and the cytotoxicity [13] is given as “has not appeared as cytotoxic”.
